Assays:
Format in all cases: in vivo
Veronica persica (VERPE) [1] = assay: Post-emergence herbicidal efficacy at 80 g/ha, greenhouse pot test; conditions: visual rating vs untreated control after about 3 weeks
How it was run: (§1)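 Visual rating of activity versus untreated plants after about 3 greenhouse weeks, 0% meaning control-like and 100% meaning dead. Plants in sandy loam were sprayed at one-leaf stage (2–3 weeks post-sowing) with WP/EC compound suspensions or emulsions, 0.5% additive, 600 l/ha water.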

Viola tricolor (VIOTR) [2] = assay: as above; conditions: visual rating vs untreated control after about 3 weeks
How it was run: as §1

[3] = tested on: Alopecurus myosuroides (ALOMY); assay: as above; conditions: visual rating vs untreated control after about 3 weeks
How it was run: as §1

[4] = tested on: Polygonum convolvulus (POLCO); assay: as above; conditions: visual rating vs untreated control after about 3 weeks
How it was run: as §1

[5] = tested on: Amaranthus retroflexus (AMARE); assay: as above; conditions: visual rating vs untreated control after about 3 weeks
How it was run: as §1

[6] = tested on: Matricaria inodora (MATIN); assay: Pre-emergence herbicide efficacy at 80 g/ha, greenhouse pot test; conditions: visual scoring vs untreated control after about 3 weeks
How it was run: (§2)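 Seeds were sown in pots and covered with soil, then the compound (WP or EC formulation) was sprayed onto the soil surface as an aqueous suspension or emulsion with 0.5% additive. Pots were kept in a greenhouse, and after about 3 weeks activity was scored visually versus untreated controls (100% = plants dead, 0% = like control).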

Veronica persica (VERPE) [7] = assay: as above; conditions: visual scoring vs untreated control after about 3 weeks
How it was run: as §2

Viola tricolor (VIOTR) [8] = assay: as above; conditions: visual scoring vs untreated control after about 3 weeks
How it was run: as §2

[9] = tested on: Digitaria sanguinalis (DIGSA); assay: as above; conditions: visual scoring vs untreated control after about 3 weeks
How it was run: as §2

[10] = tested on: Polygonum convolvulus (POLCO); assay: as above; conditions: visual scoring vs untreated control after about 3 weeks
How it was run: as §2

[11] = tested on: Amaranthus retroflexus (AMARE); assay: as above; conditions: visual scoring vs untreated control after about 3 weeks
How it was run: as §2

Poa annua (POAAN) [12] = assay: Post-emergence herbicidal efficacy at 320 g/ha, greenhouse pot test; conditions: visual rating vs untreated control after about 3 weeks
How it was run: (§3)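 Visual percent activity (0% = like control, 100% = plants dead) is scored about 3 weeks after treatment, relative to untreated plants. Compounds go on as wettable powder or emulsion concentrate with 0.5% additive at 600 liters per hectare water, at the one-leaf stage.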

Veronica persica (VERPE) [13] = assay: as above; conditions: 320 g/ha, visual rating vs untreated control after about 3 weeks
How it was run: as §3

[14] = tested on: Digitaria sanguinalis (DIGSA); assay: as above; conditions: visual rating vs untreated control after about 3 weeks
How it was run: as §3

Bassia scoparia (KCHSC) [15] = assay: as above; conditions: visual rating vs untreated control after about 3 weeks
How it was run: as §3

[16] = tested on: Amaranthus retroflexus (AMARE); assay: as above; conditions: visual rating vs untreated control after about 3 weeks
How it was run: as §3

[17] = tested on: Abutilon theophrasti (ABUTH); assay: as above; conditions: visual rating vs untreated control after about 3 weeks
How it was run: as §3

Stellaria media (STEME) [18] = assay: as above; conditions: visual rating vs untreated control after about 3 weeks
How it was run: as §3

[19] = tested on: Matricaria inodora (MATIN); assay: Pre-emergence herbicide efficacy at 320 g/ha, greenhouse pot test; conditions: visual scoring vs untreated control after about 3 weeks
How it was run: (§4)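 Pre-emergence, greenhouse: sandy loam pots, seeds covered with soil; compound as WP/EC in water + 0.5% additive, 600 L/ha spray volume onto covering soil. Readout: visual % effect at ~3 wk vs untreated (100% = dead, 0% = as control).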

Poa annua (POAAN) [20] = assay: as above; conditions: visual scoring vs untreated control after about 3 weeks
How it was run: as §4

Veronica persica (VERPE) [21] = assay: as above; conditions: visual scoring vs untreated control after about 3 weeks
How it was run: as §4

[22] = tested on: Alopecurus myosuroides (ALOMY); assay: as above; conditions: visual scoring vs untreated control after about 3 weeks
How it was run: as §4

Setaria viridis (SETVI) [23] = assay: as above; conditions: visual scoring vs untreated control after about 3 weeks
How it was run: as §4

[24] = tested on: Digitaria sanguinalis (DIGSA); assay: as above; conditions: visual scoring vs untreated control after about 3 weeks
How it was run: as §4

[25] = tested on: Echinochloa crus-galli (ECHCG); assay: as above; conditions: visual scoring vs untreated control after about 3 weeks
How it was run: as §4

Bassia scoparia (KCHSC) [26] = assay: as above
How it was run: as §4

[27] = tested on: Amaranthus retroflexus (AMARE); assay: as above; conditions: visual scoring vs untreated control after about 3 weeks
How it was run: as §4

[28] = tested on: Abutilon theophrasti (ABUTH); assay: as above; conditions: visual scoring vs untreated control after about 3 weeks
How it was run: as §4

Stellaria media (STEME) [29] = assay: as above; conditions: visual scoring vs untreated control after about 3 weeks
How it was run: as §4

[30] = tested on: Abutilon theophrasti (ABUTH); assay: Pre-emergence herbicide efficacy at 80 g/ha, greenhouse pot test; conditions: visual scoring vs untreated control after about 3 weeks
How it was run: as §2

Lolium rigidum (LOLRI) = assay: Pre-emergence herbicide efficacy at 320 g/ha, greenhouse pot test; conditions: visual scoring vs untreated control after about 3 weeks
How it was run: as §4

Setaria viridis (SETVI) [31] = assay: Post-emergence herbicidal efficacy at 80 g/ha, greenhouse pot test; conditions: visual rating vs untreated control after about 3 weeks
How it was run: as §1

Setaria viridis (SETVI) [32] = assay: Pre-emergence herbicide efficacy at 80 g/ha, greenhouse pot test; conditions: visual scoring vs untreated control after about 3 weeks
How it was run: as §2

[33] = tested on: Echinochloa crus-galli (ECHCG); assay: as above; conditions: visual scoring vs untreated control after about 3 weeks
How it was run: as §2

[34] = tested on: Alopecurus myosuroides (ALOMY); assay: as above; conditions: visual scoring vs untreated control after about 3 weeks
How it was run: as §2

Ipomoea purpurea (PHBPU) = assay: as above; conditions: visual scoring vs untreated control after about 3 weeks
How it was run: as §2

[35] = 320 g/ha, visual scoring vs untreated control after about 3 weeks
[36] = dosage 1280 g/ha in Table C6, visual scoring after about 3 weeks

SMILES	Post-emergence efficacy against Amaranthus retroflexus (AMARE) [5] [%]	Pre-emergence efficacy against Matricaria inodora (MATIN) [6] [%]	Pre-emergence efficacy against Veronica persica (VERPE) (Veronica persica (VERPE) [7]) [%]	Pre-emergence efficacy against Viola tricolor (VIOTR) (Viola tricolor (VIOTR) [8]) [%]	Pre-emergence efficacy against Polygonum convolvulus (POLCO) [10] [%]	Pre-emergence efficacy against Amaranthus retroflexus (AMARE) [11] [%]	Post-emergence efficacy against Poa annua (POAAN) (Poa annua (POAAN) [12]) [%]	Post-emergence efficacy against Veronica persica (VERPE) (Veronica persica (VERPE) [13]) [%]	Post-emergence efficacy against Bassia scoparia (KCHSC) (Bassia scoparia (KCHSC) [15]) [%]	Post-emergence efficacy against Amaranthus retroflexus (AMARE) [16] [%]	Post-emergence efficacy against Abutilon theophrasti (ABUTH) [17] [%]	Post-emergence action against Stellaria media (STEME) (Stellaria media (STEME) [18]) [%]	Pre-emergence efficacy against Matricaria inodora (MATIN) [19] [%]	Pre-emergence efficacy against Poa annua (POAAN) (Poa annua (POAAN) [20]) [%]	Pre-emergence efficacy against Veronica persica (VERPE) (Veronica persica (VERPE) [21]) [%]	Pre-emergence efficacy against Setaria viridis (SETVI) (Setaria viridis (SETVI) [23]) [%]	Pre-emergence efficacy against Echinochloa crus-galli (ECHCG) [25] [%]	Pre-emergence efficacy against Amaranthus retroflexus (AMARE) [27] [%]	Pre-emergence efficacy against Abutilon theophrasti (ABUTH) [28] [%]	Pre-emergence efficacy against Stellaria media (STEME) (Stellaria media (STEME) [29]) [%]	also measured
Cc1cc(C)c(-c2cc(C(F)F)on2)c(Oc2ncc(F)cn2)n1 [Example I-3]	90	100	80	100	90	100	100	100	100	90	90	90	100	100	100	100	100	100	100	100	Post-emergence efficacy against Veronica persica (VERPE) (Veronica persica (VERPE) [1]): 80%; Post-emergence efficacy against Viola tricolor (VIOTR) (Viola tricolor (VIOTR) [2]): 100%; Post-emergence efficacy against Alopecurus myosuroides (ALOMY) [3]: 90%; Post-emergence efficacy against Polygonum convolvulus (POLCO) [4]: 100%; Pre-emergence efficacy against Digitaria sanguinalis (DIGSA) [9]: 100%; Post-emergence efficacy against Digitaria sanguinalis (DIGSA) [14]: 90%; Pre-emergence efficacy against Alopecurus myosuroides (ALOMY) [22]: 100%; Pre-emergence efficacy against Digitaria sanguinalis (DIGSA) [24]: 100%; Pre-emergence efficacy against Bassia scoparia (KCHSC) (Bassia scoparia (KCHSC) [26]; [35]): 100%
Cc1cc(C)c(-c2cc(C(F)F)on2)c(Oc2ncc(Cl)cn2)n1 [Example I-10]		90		100	90	90	100	90					100	90	100	90	100	100	100	100	Post-emergence efficacy against Viola tricolor (VIOTR) (Viola tricolor (VIOTR) [2]): 100%; Post-emergence efficacy against Alopecurus myosuroides (ALOMY) [3]: 80%; Pre-emergence efficacy against Digitaria sanguinalis (DIGSA) [9]: 90%; Pre-emergence efficacy against Abutilon theophrasti (ABUTH) [30]: 90%; Post-emergence efficacy against Digitaria sanguinalis (DIGSA) [14]: 100%; Pre-emergence efficacy against Lolium rigidum (LOLRI) (Lolium rigidum (LOLRI)): 90%; Pre-emergence efficacy against Digitaria sanguinalis (DIGSA) [24]: 90%; Pre-emergence efficacy against Bassia scoparia (KCHSC) (Bassia scoparia (KCHSC) [26]; [35]): 90%
Cc1cc(C)c(-c2cc(C(F)F)no2)c(Oc2ncc(C(F)(F)F)cn2)n1 [Example I-45]	80		80	90	80	100	100	100	90	100	90	100	100	100	100	100	100	100	100	100	Post-emergence efficacy against Setaria viridis (SETVI) (Setaria viridis (SETVI) [31]): 80%; Pre-emergence efficacy against Setaria viridis (SETVI) (Setaria viridis (SETVI) [32]): 90%; Pre-emergence efficacy against Echinochloa crus-galli (ECHCG) [33]: 80%; Pre-emergence efficacy against Abutilon theophrasti (ABUTH) [30]: 90%; Pre-emergence efficacy against Alopecurus myosuroides (ALOMY) [22]: 100%; Pre-emergence efficacy against Bassia scoparia (KCHSC) (Bassia scoparia (KCHSC) [26]; [36]): 100%
Cc1cc(C)c(-n2cc(Br)cn2)c(Oc2ncc(F)cn2)n1 [Example I-277]	80	100	80	100	100	100	90	90	100	100	90	90	90	100	100	100	100	100	100	100	Post-emergence efficacy against Setaria viridis (SETVI) (Setaria viridis (SETVI) [31]): 80%; Pre-emergence efficacy against Alopecurus myosuroides (ALOMY) [34]: 80%; Pre-emergence efficacy against Setaria viridis (SETVI) (Setaria viridis (SETVI) [32]): 100%; Pre-emergence efficacy against Ipomoea purpurea (PHBPU) (Ipomoea purpurea (PHBPU)): 100%; Pre-emergence efficacy against Echinochloa crus-galli (ECHCG) [33]: 100%; Pre-emergence efficacy against Abutilon theophrasti (ABUTH) [30]: 90%; Pre-emergence efficacy against Bassia scoparia (KCHSC) (Bassia scoparia (KCHSC) [26]; [36]): 100%

From US20230303549A1, “SUBSTITUTED HETEROARYLOXYPYRIDINES, THE SALTS THEREOF AND THEIR USE AS HERBICIDAL AGENTS” (Bayer Aktiengesellschaft, priority 2020, published 2023)
